The values below come from PMC3072269 (Journal of medicinal chemistry, 2010).

Entries after “also recorded” stand apart in the source; their conditions may differ. Where two headings read alike, the source gives them in different places.

Usually EC50 stands for the midpoint of the concentration-response curve. As a reminder, the IC50 is the concentration needed to halve the response being measured.

One series concerns PTEN mRNA. In words: Quantitative RT-PCR analysis of PTEN mRNA splicing in mouse tissues. Type of series: in vivo, Balb/c mice. The following applies: for PTEN mRNA in liver, quantitative RT-PCR: i.p. 3x/wk, 7 at 25 mg/kg, 1 at 40 mg/kg, PNAs 10 or 40 mg/kg.
Another series concerns PTEN protein. In words: Western blot analysis of PTEN protein in mouse tissues. The note with it: 7 at 25 mg/kg, i.p. 3x/wk, 2 wks. Type of series: in vivo, Balb/c mice. Background: Immunoblotting shows a protein as a band on a membrane.
The subject of the next series is PTEN. The note with it: mice, determined in a previous study, cited from earlier work.
The subject of series [1] is CD40 cell surface protein expression. The following applies: read-out: IC50, CD40 cell surface protein expression; flow cytometry, FITC labeled antiCD40 antibody; cited from earlier work. For orientation: In flow cytometry, cells or beads pass a laser one at a time.
Another series concerns PTEN RNA. As to the kind of experiment: Quantitative RT-PCR of PTEN RNA splicing in BCL1 cells. The format is cell-based, murine. The note with it: data not shown.
Setting [2] is: amphipathic peptide study, dosing as in Table 6.

In the case of “1: uniform 2′-O-MOE phosphorothioate 20-mer CTCAGCACATCTACAAGAAA, PTEN intron 3:exon 4 (all 2'-MOE, all phosphorothioate, methylation of C not given here) [Compound 1, reference compound]”, the “PTEN mRNA in liver, quantitative RT-PCR” value in the series on PTEN mRNA (2 wks) is reported as “modest downregulation of full length transcript with upregulation of the alternatively spliced product”.
For the substance “7: antiPTEN phosphorothioate oligonucleotide with 2′-O-MOE wings and a 2′-deoxyribonucleotide gap, CTGCTAGCCTCTGGATTTGA, exon 9 [Compound 7]”, in the series on PTEN mRNA (2 wks), the “PTEN mRNA in liver, quantitative RT-PCR” value was “downregulation of total PTEN message (both isoforms)”. Besides, the “PTEN protein in adipose tissue, western blot” value in the series with PTEN protein (9 at high dose (40 mg/kg)) is “significant and comparable downregulation of PTEN protein”. In the series with PTEN protein (PNAs 10 or 40 mg/kg), the “PTEN protein expression in liver, western blot” value is listed as “significant inhibition of PTEN protein expression”. In addition, the values for the EC50 in the series with PTEN (read-out: Adipose EC50) and with PTEN (read-out: Liver EC50) were 0.7 to 1.4 µM and 14 µM, respectively.
For “(Lys)2-TKCTCAGCACATCTACA-Lys [Compound 10]”, the “PTEN mRNA splicing in white adipose tissue, quantitative RT-PCR” value in the series with PTEN mRNA (10 or 40 mg/kg i.p., 3x/wk, 2 wks) was “marginal with the alternatively spliced isoform being upregulated but the full length transcript being unaltered; also recorded: inactive at both doses”.
Take CACAGATGACATTAG-Lys [Compound 8]: the half-inhibitory concentration (IC50) in series [1] is 0.9 µM.
On to CTCAGCACATCTACA-Lys [Compound 3], for which the “alteration of splicing of PTEN RNA” value in the series on PTEN RNA is “full length transcript was reduced and the alternatively spliced product was enhanced”.
“D-(KKLLKAALKLAKKG)-TKCTCAGCACATCTACA-Lys [Compound 14]”: in the series with PTEN mRNA (setting [2]), the “PTEN splicing activity in adipose tissue, quantitative RT-PCR” value was “showed activity at the low dose” and the “PTEN splicing activity in kidney, quantitative RT-PCR” value was “comparable to the octa(L-lysine) conjugate 9, even when administered at an approximately 4.5-fold lower dose”. Also, in “Tolerability in mice” (8.25 mg/kg i.p., 3x/wk, 2 wks), the “histopathological examination of the kidneys, low dose group” value is “nephrotoxicity with proximal tubule necrosis and regeneration”. In addition, in the series “Tolerability in mice” (33 mg/kg i.p.), the “liver morphology, high dose group” value was “appeared normal” and the “spleen size, high dose group” value is listed as “drastically reduced spleen sizes”. In “Tolerability in mice” (33 mg/kg i.p., single administration), the “histopathological examination of the kidneys, high dose group” value is “profound proximal tubule necrosis and proteinacous accumulation in Henle’s loop and collecting tubules”. For the same substance, the “body weight, high dose group” value in the series “Tolerability in mice” (33 mg/kg i.p., arm terminated prematurely) is listed as “rapid weight loss after administration of the first dose, indicative of acute toxicity”.
